Measurements: patent publication US20230416248A1, “COMPOUNDS AND USES THEREOF” (Foghorn Therapeutics Inc., priority 2020, published 2023)
Like-named read-outs stand apart in the source and are kept apart here.

Assays:
BRG-1 = target: T1, BRG-1 (Homo sapiens, UniProt P51532); assay: ATPase catalytic activity of BRG-1, ADP-Glo in vitro biochemical assay; conditions: 30 nM BRG-1, 400 μM ATP, read-out: BRG1 IC50
T1 construct: made in house; host or cells: High Five insect cells
Summary of the method: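 ADP produced by BRG-1 was quantified by luciferase luminescence. A 60 min room-temperature ADP-to-ATP conversion followed a 40 min ATP-depletion step.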

BRM = target: T2, BRM (Homo sapiens, UniProt P51531); assay: ATPase catalytic activity of BRM, ADP-Glo in vitro biochemical assay; conditions: for IC50: 30 nM BRM, 400 μM ATP; for Ratio* (BRG1 IC50 (μM) divided by BRM IC50 (μM)): selectivity ratio BRG1 IC50 / BRM IC50
T2 construct: made in house; host or cells: High Five insect cells
Summary of the method: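 ADP-Glo luminescence, after depletion of leftover ATP and conversion of ADP, reported the activity. The 1 h room-temperature reaction held 400 μM ATP, 20 nM salmon sperm DNA and 30 nM BRM in 20 mM Tris pH 8, 20 mM MgCl2, 50 mM NaCl, 0.1% Tween-20, 1 mM DTT.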

[1] = ATPase catalytic activity, ADP-Glo

T2 sequence (P51531 whole entry): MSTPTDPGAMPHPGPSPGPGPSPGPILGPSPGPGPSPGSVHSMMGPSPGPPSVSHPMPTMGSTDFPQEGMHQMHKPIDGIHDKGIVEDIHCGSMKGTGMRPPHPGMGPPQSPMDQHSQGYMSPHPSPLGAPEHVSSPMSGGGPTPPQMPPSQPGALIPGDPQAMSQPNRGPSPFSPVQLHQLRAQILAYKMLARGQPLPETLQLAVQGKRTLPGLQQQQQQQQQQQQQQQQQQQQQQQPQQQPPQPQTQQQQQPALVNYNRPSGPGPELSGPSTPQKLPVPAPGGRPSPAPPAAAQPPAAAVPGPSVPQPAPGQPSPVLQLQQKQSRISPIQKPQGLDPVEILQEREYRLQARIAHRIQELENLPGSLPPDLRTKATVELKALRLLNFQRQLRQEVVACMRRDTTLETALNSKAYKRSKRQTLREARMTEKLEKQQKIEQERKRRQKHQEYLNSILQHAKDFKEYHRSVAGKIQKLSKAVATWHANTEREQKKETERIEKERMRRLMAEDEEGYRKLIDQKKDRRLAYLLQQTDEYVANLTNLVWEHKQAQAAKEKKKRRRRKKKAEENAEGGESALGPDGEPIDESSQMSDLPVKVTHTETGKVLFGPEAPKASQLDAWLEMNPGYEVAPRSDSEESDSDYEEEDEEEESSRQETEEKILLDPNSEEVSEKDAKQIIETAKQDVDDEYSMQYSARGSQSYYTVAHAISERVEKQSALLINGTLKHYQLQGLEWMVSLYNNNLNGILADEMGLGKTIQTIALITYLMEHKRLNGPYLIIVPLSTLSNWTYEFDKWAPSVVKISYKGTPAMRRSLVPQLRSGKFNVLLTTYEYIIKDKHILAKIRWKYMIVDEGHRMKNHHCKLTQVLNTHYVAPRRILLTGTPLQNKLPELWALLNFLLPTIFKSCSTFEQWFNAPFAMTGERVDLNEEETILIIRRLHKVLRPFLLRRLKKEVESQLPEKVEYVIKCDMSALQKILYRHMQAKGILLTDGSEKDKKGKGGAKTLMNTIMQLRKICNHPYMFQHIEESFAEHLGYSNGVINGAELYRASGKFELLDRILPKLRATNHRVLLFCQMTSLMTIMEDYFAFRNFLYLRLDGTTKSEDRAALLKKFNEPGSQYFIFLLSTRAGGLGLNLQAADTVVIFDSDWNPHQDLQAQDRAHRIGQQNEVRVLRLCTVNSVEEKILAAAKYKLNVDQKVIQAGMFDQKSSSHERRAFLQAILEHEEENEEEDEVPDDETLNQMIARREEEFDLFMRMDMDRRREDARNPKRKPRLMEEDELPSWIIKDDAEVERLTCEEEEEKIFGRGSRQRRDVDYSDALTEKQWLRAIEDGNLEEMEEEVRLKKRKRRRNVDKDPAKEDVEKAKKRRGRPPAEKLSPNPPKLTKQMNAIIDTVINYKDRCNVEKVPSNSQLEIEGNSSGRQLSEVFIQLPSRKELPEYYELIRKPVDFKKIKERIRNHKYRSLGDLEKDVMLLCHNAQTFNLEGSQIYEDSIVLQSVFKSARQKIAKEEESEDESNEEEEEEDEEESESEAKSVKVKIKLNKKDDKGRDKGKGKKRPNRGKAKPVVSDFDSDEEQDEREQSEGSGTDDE
T1 sequence (P51532 whole entry): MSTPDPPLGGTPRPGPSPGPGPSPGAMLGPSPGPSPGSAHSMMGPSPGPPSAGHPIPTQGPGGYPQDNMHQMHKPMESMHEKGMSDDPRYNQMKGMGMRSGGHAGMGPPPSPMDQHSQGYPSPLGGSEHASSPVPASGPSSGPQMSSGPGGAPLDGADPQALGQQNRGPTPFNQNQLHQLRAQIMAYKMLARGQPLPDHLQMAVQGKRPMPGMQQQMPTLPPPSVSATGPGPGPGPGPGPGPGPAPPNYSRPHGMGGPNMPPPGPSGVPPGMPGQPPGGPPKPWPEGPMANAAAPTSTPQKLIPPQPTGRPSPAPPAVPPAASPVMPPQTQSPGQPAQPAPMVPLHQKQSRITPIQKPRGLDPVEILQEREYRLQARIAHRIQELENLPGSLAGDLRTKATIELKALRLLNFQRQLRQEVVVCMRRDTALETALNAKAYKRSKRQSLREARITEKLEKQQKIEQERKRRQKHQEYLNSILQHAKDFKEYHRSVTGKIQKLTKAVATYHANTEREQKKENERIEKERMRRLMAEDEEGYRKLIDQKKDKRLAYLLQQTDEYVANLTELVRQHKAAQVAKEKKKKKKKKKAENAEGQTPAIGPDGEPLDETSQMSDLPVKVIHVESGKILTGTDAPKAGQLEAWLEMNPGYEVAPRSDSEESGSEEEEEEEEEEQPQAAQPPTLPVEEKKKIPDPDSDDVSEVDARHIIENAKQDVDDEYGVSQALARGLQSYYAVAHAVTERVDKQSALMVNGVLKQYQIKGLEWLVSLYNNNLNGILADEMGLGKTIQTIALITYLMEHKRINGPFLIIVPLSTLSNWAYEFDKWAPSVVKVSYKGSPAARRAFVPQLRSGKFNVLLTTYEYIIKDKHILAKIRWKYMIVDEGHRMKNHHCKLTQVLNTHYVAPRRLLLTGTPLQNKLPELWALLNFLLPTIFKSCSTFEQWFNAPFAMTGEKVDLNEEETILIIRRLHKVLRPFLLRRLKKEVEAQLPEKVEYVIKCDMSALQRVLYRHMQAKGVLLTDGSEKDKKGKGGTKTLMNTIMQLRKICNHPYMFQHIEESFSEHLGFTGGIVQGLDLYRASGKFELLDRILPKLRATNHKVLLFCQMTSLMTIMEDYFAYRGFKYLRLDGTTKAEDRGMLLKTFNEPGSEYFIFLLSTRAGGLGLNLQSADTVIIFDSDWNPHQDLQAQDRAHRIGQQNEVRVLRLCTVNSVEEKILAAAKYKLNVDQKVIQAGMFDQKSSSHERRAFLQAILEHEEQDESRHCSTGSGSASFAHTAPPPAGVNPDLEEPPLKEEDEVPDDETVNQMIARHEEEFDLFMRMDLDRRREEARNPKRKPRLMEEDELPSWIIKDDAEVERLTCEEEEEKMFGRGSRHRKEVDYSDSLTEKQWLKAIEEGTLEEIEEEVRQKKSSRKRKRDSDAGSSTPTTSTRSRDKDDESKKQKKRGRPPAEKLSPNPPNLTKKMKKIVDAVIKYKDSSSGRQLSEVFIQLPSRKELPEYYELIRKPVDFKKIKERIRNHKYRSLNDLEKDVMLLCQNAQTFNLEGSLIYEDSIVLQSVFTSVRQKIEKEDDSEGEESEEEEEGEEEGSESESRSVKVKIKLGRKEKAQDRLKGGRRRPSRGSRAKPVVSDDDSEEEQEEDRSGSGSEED

| SMILES | IC50 (BRG-1; ADP-Glo ATPase assay) | IC50 (BRM; ADP-Glo ATPase assay) | Ratio* (BRG1 IC50 (μM) divided by BRM IC50 (μM)) (BRM) | Ratio* (BRM; ratio BRG1 IC50 / BRM IC50) | IC50 (BRG-1; [1]) | IC50 (BRM; [1]) | Ratio* (BRM; ratio of BRG1 IC50 to BRM IC50) |
| --- | --- | --- | --- | --- | --- | --- | --- |
| CS(=O)(=O)c1cc(C(=O)NCc2cc3nc(-c4cccc(C5CC5)n4)ccc3cn2)ccc1C#N [Compound 259] | 5000 nM | 467 nM | 10.71 |  |  |  |  |
| CCc1cc(C(=O)NCc2cc3nc(-c4cccc(N5C[C@@H](C)O[C@@H](C)C5)n4)ccc3cn2)cc2c1COCCS2(=O)=O [Compound 59] | 780 nM | 73 nM | 10.68 |  |  |  |  |
| O=C(NCc1cc2nc(N3CCOc4cc(C5CC5)ccc43)ccc2nn1)c1ccc2c(c1)S(=O)(=O)CCOC2 [Compound 775] | 152 nM | 12.5 nM |  | 12.13 |  |  |  |
| C[C@@H]1CN(c2cccc(-c3ccc4cnc(CNC(=O)c5ccc6c(c5)S(=O)(=O)CCCC6)cc4n3)n2)C[C@H](C)O1 [Compound 91] | 17 nM | 4.8 nM | 3.52 |  |  |  |  |
| COc1ccc2c(c1)N(c1ccc3cnc(CNC(=O)c4ccc5c(c4)S(=O)(=O)CCOC5)cc3n1)CCO2 [Compound 776] | 100 nM | 6.3 nM |  | 15.77 |  |  |  |
| O=C(NCc1cc2nc(N3CCOc4ccc(C5CC5)nc43)ccc2cn1)c1ccc2c(c1)S(=O)(=O)CCOC2 [Compound 616] |  |  |  |  | 442 nM | 8.2 nM | 54.03 |
| O=C(NCc1cc2nc(-c3cncc(C4CC4)n3)ccc2cn1)c1ccc2c(c1)[S+]([O-])CCOC2 (stereo not drawn) [Compound 299] | 6360 nM | 869 nM | 7.32 |  |  |  |  |
| COc1cnc2c(c1)CCN2c1ccc2cnc(CNC(=O)c3ccc4c(c3)S(=O)(=O)CCOC4)cc2n1 [Compound 703] | 298 nM | 36.8 nM |  | 8.10 |  |  |  |
| CC1CN(c2cccc(-c3ccc4cnc(CNC(=O)c5ccc6c(c5)S(=O)(=O)C(C)CN6C)cc4n3)n2)CC(C)O1 (stereo not drawn) [Compound 567] |  |  |  |  | 534 nM | 32.8 nM | 16.28 |
| O=C(NCc1cc2nc(-c3cccc(OCC4CCC4)n3)ccc2cn1)c1ccc2c(c1)S(=O)(=O)CCOC2 [Compound 375] |  |  |  |  | 630 nM | 42.7 nM | 14.74 |
| C[C@@H]1CN(c2cccc(-c3ccc4cnc([C@@H](C)NC(=O)c5ccc6c(c5)S(=O)(=O)CCOC6)cc4n3)n2)C[C@H](C)O1 [Compound 121] | 497 nM | 86.7 nM | 5.73 |  |  |  |  |
| O=C(NCc1cc2nc(N3CCCc4ccc(C5CCC5)nc43)ccc2cn1)c1ccc2c(c1)S(=O)(=O)CCOC2 [Compound 730] | 814 nM | 16.4 nM |  | 49.65 |  |  |  |
| COCCN(C)c1cccc(-c2ccc3cnc(CNC(=O)c4ccc5c(c4)S(=O)(=O)CCOC5)cc3n2)n1 [Compound 145] | 57.1 nM | 3.6 nM | 15.77 |  |  |  |  |
| C[C@@H]1CN(c2cccc(-c3cnc4cnc(CNC(=O)c5ccc(Cl)c(S(C)(=O)=O)c5)cc4n3)n2)C[C@H](C)O1 [Compound 41] | 194 nM | 18.1 nM | 10.70 |  |  |  |  |
| Cc1cnc2c(c1)OCCN2c1ccc2cnc(CNC(=O)c3ccc4c(c3)S(=O)(=O)C(C)COC4)cc2n1 (stereo not drawn) [Compound 545] |  |  |  |  | 65.9 nM | 7.7 nM | 8.60 |
| O=C(NCc1cc2nc(N3CCOc4cc(C(F)F)cnc43)ccc2cn1)c1ccc2c(c1)S(=O)(=O)CCOC2 [Compound 508] |  |  |  |  | 137 nM | 13.1 nM | 10.53 |
| C[C@@H]1C=C(c2cccc(-c3ccc4cnc(CNC(=O)c5ccc6c(c5)S(=O)(=O)CCOC6)cc4n3)n2)C[C@H](C)O1 [Compound 45] | 19.8 nM | 5.1 nM | 3.87 |  |  |  |  |
| COc1ccc2c(c1)CCN2c1ccc2cnc(CNC(=O)c3ccc4c(c3)S(=O)(=O)CCOC4)cc2n1 [Compound 653] |  |  |  |  | 1720 nM | 230 nM | 7.47 |
| CCN(c1cccc(-c2ccc3cnc(CNC(=O)c4ccc5c(c4)S(=O)(=O)CCOC5)cc3n2)n1)[C@@H](C)COC [Compound 372] |  |  |  |  | 117 nM | 10.9 nM | 10.78 |

| SMILES | IC50 (BRG-1; ADP-Glo ATPase assay) | IC50 (BRM; ADP-Glo ATPase assay) | Ratio* (BRG1 IC50 (μM) divided by BRM IC50 (μM)) (BRM) | Ratio* (BRM; ratio BRG1 IC50 / BRM IC50) | IC50 (BRG-1; [1]) | IC50 (BRM; [1]) | Ratio* (BRM; ratio of BRG1 IC50 to BRM IC50) |
| --- | --- | --- | --- | --- | --- | --- | --- |
| O=C(NCc1cc2nc(-c3cccc(F)n3)ccc2cn1)c1ccc2c(c1)S(=O)(=O)CCOC2 [Compound 243] | 4660 nM | 528 nM | 8.82 |  |  |  |  |
| CN(C)[C@@H]1CCN(c2cccc(-c3ccc4cnc(CNC(=O)c5ccc6c(c5)S(=O)(=O)CCOC6)cc4n3)n2)CC1(F)F [Compound 79] | 116 nM | 14.6 nM | 7.89 |  |  |  |  |
| O=C(NCc1cc2nc(N3CCOc4cc(C5CC5)c(F)c(F)c43)ccc2cn1)c1ccc2c(c1)S(=O)(=O)CCOC2 [Compound 805] | 303 nM | 26.2 nM |  | 11.56 |  |  |  |
| COCCN1CCc2ccc(-c3ccc4cnc(CNC(=O)c5ccc6c(c5)S(=O)(=O)CCOC6)cc4n3)nc2C1 [Compound 772] | 2880 nM | 397 nM |  | 7.26 |  |  |  |
| CN(C)S(=O)(=O)c1cc(C(=O)NCc2cc3nc(-c4cncc(C5CC5)n4)ccc3cn2)ccc1Cl [Compound 288] | 3460 nM | 197 nM | 17.58 |  |  |  |  |
| C[C@H]1C[C@H]1c1ccc2c(n1)N(c1ccc3cnc(CNC(=O)c4ccc5c(c4)S(=O)(=O)CCOC5)cc3n1)CCO2 [Compound 831] | 1160 nM | 35.2 nM |  | 33.09 |  |  |  |
| CO[C@H]1C[C@H]1N(C)c1cccc(-c2ccc3cnc(CNC(=O)c4ccc5c(c4)S(=O)(=O)CCOC5)cc3n2)n1 [Compound 534] |  |  |  |  | 76.3 nM | 6.1 nM | 12.41 |
| O=C(NCc1cc2nc(N3CCCc4ccc(F)nc43)ccc2cn1)c1ccc2c(c1)S(=O)(=O)CCOC2 [Compound 603] |  |  |  |  | 117 nM | 10.7 nM | 10.88 |
| C[C@H]1COCc2ccc(C(=O)NCc3cc4nc(-c5cccc([C@@H]6CC6(F)F)n5)ccc4cn3)cc2S1(=O)=O [Compound 393] |  |  |  |  | 638 nM | 19 nM | 33.52 |
| O=C(NCc1cc2cc(-c3cccc(N4CCC4)n3)ccc2cn1)c1ccc2c(c1)S(=O)(=O)CCOC2 [Compound 271] | 204 nM | 16.1 nM | 12.70 |  |  |  |  |
| O=C(NCc1cc2nc(-c3ccc4c(n3)OCCC4)ccc2cn1)c1ccc2c(c1)S(=O)(=O)CCOC2 [Compound 499] |  |  |  |  | 1190 nM | 290 nM | 4.12 |
| COc1cc2c(cn1)N(c1ccc3cnc(CNC(=O)c4ccc5c(c4)S(=O)(=O)CCOC5)cc3n1)CCC2 [Compound 719] | 580 nM | 42.6 nM |  | 13.62 |  |  |  |
| O=C(NCc1cc2nc(N3CCCc4c(F)ccnc43)ccc2cn1)c1ccc2c(c1)S(=O)(=O)CCOC2 [Compound 526] |  |  |  |  | 250 nM | 22.1 nM | 11.34 |
| O=C(NCc1cc2nc(-c3cncc(C4CC4)n3)ccc2cn1)c1ccc2c(c1)S(=O)(=O)NCCC2 [Compound 293] | 2410 nM | 223 nM | 10.84 |  |  |  |  |
| CO[C@@H](C)COc1ccc2c(c1)N(c1ccc3cnc(CNC(=O)c4ccc5c(c4)S(=O)(=O)CCOC5)cc3n1)CCC2 [Compound 706] | 46.9 nM | 5 nM |  | 9.39 |  |  |  |
| COCCN1CCCOc2c(-c3ccc4cnc(CNC(=O)c5ccc6c(c5)S(=O)(=O)CCOC6)cc4n3)cccc21 [Compound 313] |  |  |  |  | 387 nM | 105 nM | 3.69 |
| O=C(NCc1cc2nc(-c3ccc4ccn(CC(F)F)c4n3)ccc2cn1)c1ccc2c(c1)S(=O)(=O)CCOC2 [Compound 140] | 243 nM | 35.2 nM | 6.92 |  |  |  |  |
| O=C(NCc1cc2nc(N3CCCc4ccc(OCC5CC5)nc43)ccc2cn1)c1ccc2c(c1)S(=O)(=O)CCOC2 [Compound 589] |  |  |  |  | 1080 nM | 77.7 nM | 13.88 |
